This note sets out measurements from publication PMC3171737 (Journal of medicinal chemistry, 2011).

Structures are written as SMILES. Like-named read-outs stand apart in the source and are kept apart here.

Assay [1] relates to H3K9me2 levels in MDA-MB-231 cells. The assay is described as follows: H3K9me2 In-Cell Western. It is filed as cell-based.
The test system of assay [2] is H3K9me2 levels in MCF7 cells. Kind of assay: H3K9me2 ICW assay, MCF7. The conditions noted are these: Homo sapiens, MCF7, 48 h, read-out: ICW IC50. It is filed as cell-based.
For assay [3], the system named is MDA-MB-231 cells. Kind of assay: MTT cell toxicity assay, MDA-MB-231. It is filed as cell-based. The conditions noted are these: Homo sapiens, MDA-MB-231, 48 h, read-out: MTT EC50. For orientation: Tetrazolium dyes change colour on reduction, which living cells bring about.
For assay [4], the system named is H3K9me2 levels in HCT116 wt cells. Kind of assay: H3K9me2 ICW assay, HCT116 wt. Format: cell-based. Conditions: Homo sapiens, HCT-116, 48 h, read-out: ICW IC50.
Assay [5] relates to H3K9me2 levels in 22RV1 cells. Kind of assay: H3K9me2 ICW assay, 22RV1. Format: cell-based. The conditions noted are these: Homo sapiens, 22Rv1, 48 h, read-out: ICW IC50.
For assay [6], the system named is H3K9me2 levels in PC3 cells. Kind of assay: H3K9me2 ICW assay, PC3. It is filed as cell-based. Conditions: Homo sapiens, PC-3, 48 h, read-out: ICW IC50.
Assay [7] concerns HCT116 p53−/− cells. The assay is described as follows: MTT assay, HCT116 p53−/−. It is filed as cell-based. The conditions noted are these: Homo sapiens, HCT-116, 48 h, read-out: MTT EC50.
For assay [8], the system named is HCT116 wt cells. The assay is described as follows: MTT assay, HCT116 wt. It is filed as cell-based. Conditions: Homo sapiens, HCT-116, 48 h, read-out: MTT EC50.
Assay [9] addresses T1, G9a (Homo sapiens, UniProt Q96KQ7).
T1 sequence (Q96KQ7 1-1210): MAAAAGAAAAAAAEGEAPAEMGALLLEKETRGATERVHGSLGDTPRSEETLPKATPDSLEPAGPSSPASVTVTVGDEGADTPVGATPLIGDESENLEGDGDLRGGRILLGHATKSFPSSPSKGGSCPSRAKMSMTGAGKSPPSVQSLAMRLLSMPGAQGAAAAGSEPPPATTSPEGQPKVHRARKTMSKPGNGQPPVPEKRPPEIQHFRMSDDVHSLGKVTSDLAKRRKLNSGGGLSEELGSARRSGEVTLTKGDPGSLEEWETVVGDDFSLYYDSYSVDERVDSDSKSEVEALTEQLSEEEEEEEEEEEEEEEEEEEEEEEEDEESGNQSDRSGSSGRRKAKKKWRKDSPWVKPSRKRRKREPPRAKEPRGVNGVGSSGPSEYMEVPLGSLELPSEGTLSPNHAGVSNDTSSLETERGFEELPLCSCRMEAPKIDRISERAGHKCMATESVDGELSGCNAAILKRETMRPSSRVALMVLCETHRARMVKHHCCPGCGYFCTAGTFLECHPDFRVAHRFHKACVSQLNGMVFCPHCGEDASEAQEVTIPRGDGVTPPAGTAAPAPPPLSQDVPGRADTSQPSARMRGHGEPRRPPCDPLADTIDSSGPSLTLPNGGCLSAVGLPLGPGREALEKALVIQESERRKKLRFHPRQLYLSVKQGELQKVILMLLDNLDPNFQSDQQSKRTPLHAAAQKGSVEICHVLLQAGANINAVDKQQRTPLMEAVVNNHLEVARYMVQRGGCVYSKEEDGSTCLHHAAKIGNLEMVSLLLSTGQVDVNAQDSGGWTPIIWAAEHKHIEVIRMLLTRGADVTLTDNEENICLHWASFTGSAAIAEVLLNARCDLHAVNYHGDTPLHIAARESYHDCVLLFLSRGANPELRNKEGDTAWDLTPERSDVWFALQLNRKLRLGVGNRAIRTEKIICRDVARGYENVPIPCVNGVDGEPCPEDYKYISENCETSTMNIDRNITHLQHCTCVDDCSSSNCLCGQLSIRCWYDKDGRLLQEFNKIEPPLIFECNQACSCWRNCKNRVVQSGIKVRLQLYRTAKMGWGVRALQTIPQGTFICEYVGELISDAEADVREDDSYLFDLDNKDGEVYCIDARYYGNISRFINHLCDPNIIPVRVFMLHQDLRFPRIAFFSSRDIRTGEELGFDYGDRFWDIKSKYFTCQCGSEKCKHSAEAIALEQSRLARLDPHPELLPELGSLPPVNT
The assay is described as follows: G9a SAHH-coupled assay. Conditions: versus compound 5. It is filed as biochemical.

Setting [10] is: Homo sapiens, MDA-MB-231, 48 h, read-out: Cellular IC50 (Reduction of H3K9me2 (ICW)), Table 2, MDA-MB-231 cells, 48 h.
[11] abbreviates: read-out: Cellular IC50 (Reduction of H3K9me2 (ICW)), Table 2, MDA-MB-231 cells, 48 h.
[12] abbreviates: Homo sapiens, MDA-MB-231, 48 h, read-out: Cellular IC50 (Reduction of H3K9me2 (ICW)), Table 4, MDA-MB-231 cells, 48 h.

Turning to `COc1cc2c(NC3CCN(C(C)C)CC3)nc(N3CCCCCC3)nc2cc1OCCCN1CCCC1` [Compound 17i, 2-(Azepan-1-yl)-N-(1-isopropylpiperidin-4-yl)-6-methoxy-7-(3-(pyrrolidin-1-yl)propoxy)quinazolin-4-amine], the IC50 in assay [1] (setting [10]) was no more than 100 nM; in assay [1] (setting [11]), 100 nM.
`COc1cc2c(NC3CCN(C)CC3)nc(N3CCCN(C)CC3)nc2cc1OCCCN(C)C` [Compound 2]: in [1] (Homo sapiens, MDA-MB-231, 48 h, read-out: Cellular IC50 (Reduction of H3K9me2 (ICW)), Table 1, MDA-MB-231 cells, 48 h), the IC50 is greater than 5000 nM.
With `COc1cc2c(NC3CCN(C(C)C)CC3)nc(N3CCCN(CC4CCCCC4)CC3)nc2cc1OCCCN1CCCC1` [Compound 17e, 2-(4-(Cyclohexylmethyl)-1,4-diazepan-1-yl)-N-(1-isopropylpiperidin-4-yl)-6-methoxy-7-(3-(pyrrolidin-1-yl)propoxy)quinazolin-4-amine], the IC50 in assay [1] (setting [10]) was no more than 100 nM.
Turning to `COc1cc2c(NC3CCN(C4CCCCC4)CC3)nc(N3CCCN(C(C)C)CC3)nc2cc1OCCCN1CCCCC1` [Compound 6, N-(1-cyclohexylpiperidin-4-yl)-2-(4-isopropyl-1,4-diazepan-1-yl)-6-methoxy-7-(3-(piperidin-1-yl)propoxy)quinazolin-4-amine], the IC50 in [1] (setting [12]) is less than 60 nM.
Consider `COc1cc2c(NC3CCN(CC4CCCCC4)CC3)nc(N3CCCN(C(C)C)CC3)nc2cc1OCCCN1CCCCC1` [Compound 7, N-(1-(cyclohexylmethyl)piperidin-4-yl)-2-(4-isopropyl-1,4-diazepan-1-yl)-6-methoxy-7-(3-(piperidin-1-yl)propoxy)quinazolin-4-amine], for which the 50% inhibitory concentration (IC50) in assay [1] (setting [12]) is less than 60 nM.
`COc1cc2c(NC3CCN(C(C)C)CC3)nc(C3CCCCC3)nc2cc1OCCCN1CCCC1` [Compound 5, 2-Cyclohexyl-N-(1-isopropylpiperidin-4-yl)-6-methoxy-7-(3-(pyrrolidin-1-yl)propoxy)quinazolin-4-amine]: the IC50 is 81 nM in assay [1] (Homo sapiens, MDA-MB-231, 48 h, read-out: Cellular IC50 (Reduction of H3K9me2 (ICW))); no more than 100 nM in [1] (setting [10]); 81 nM in assay [1] (Homo sapiens, MDA-MB-231, 48 h, read-out: ICW IC50); 70 nM in assay [2]; 210 nM in [4]; 48 nM in assay [5]. In addition, the IC50 in [6] came out at 59 nM. Also, the EC50 in assay [3], in assay [7] and in assay [8] was 11000 nM in each case.
For `COc1cc2c(NC3CCN(C(C)C)CC3)nc(C3CCCCC3)nc2cc1OCCCN1CCCCC1` [Compound 24a, 2-Cyclohexyl-N-(1-isopropylpiperidin-4-yl)-6-methoxy-7-(3-(piperidin-1-yl)propoxy)quinazolin-4-amine], the “Fold lower potency in the G9a biochemical assay compared to compound 5” value in assay [9] is on record as “about 10 fold”.
In the case of `COc1cc2c(NC3CCN(C(C)C)CC3)nc(N3CCCN(Cc4ccccc4)CC3)nc2cc1OCCCN1CCCC1` [Compound 17g, 2-(4-Benzyl-1,4-diazepan-1-yl)-N-(1-isopropylpiperidin-4-yl)-6-methoxy-7-(3-(pyrrolidin-1-yl)propoxy)quinazolin-4-amine], the IC50 in assay [1] (setting [10]) is no more than 100 nM.
In the case of `COc1cc2c(NC3CCN(C(C)C)CC3)nc(N3CCCN(C(C)C)CC3)nc2cc1OCCCN1CCCCC1` [Compound 25, 2-(4-Isopropyl-1,4-diazepan-1-yl)-N-(1-isopropylpiperidin-4-yl)-6-methoxy-7-(3-(piperidin-1-yl)propoxy)quinazolin-4-amine], the IC50 in assay [1] (setting [12]) is less than 60 nM.
On to `COc1cc2c(NC3CCN(C(C)C)CC3)nc(N3CCCN(C4CCCCC4)CC3)nc2cc1OCCCN1CCCC1` [Compound 17d, 2-(4-Cyclohexyl-1,4-diazepan-1-yl)-N-(1-isopropylpiperidin-4-yl)-6-methoxy-7-(3-(pyrrolidin-1-yl)propoxy)quinazolin-4-amine], for which the results for the IC50 in [1] (setting [10]) and in [1] (setting [11]) were no more than 100 nM and 100 nM, respectively.
As to `COc1cc2c(NC3CCN(C4CCCCC4)CC3)nc(N3CCCN(C)CC3)nc2cc1OCCCN1CCCCC1` [Compound 26, N-(1-cyclohexylpiperidin-4-yl)-6-methoxy-2-(4-methyl-1,4-diazepan-1-yl)-7-(3-(piperidin-1-yl)propoxy)quinazolin-4-amine], in assay [1] (setting [12]), the IC50 is less than 60 nM.

Broadly, the IC50 is the concentration needed to halve the response being measured. The term EC50 denotes the concentration at which the effect is half-maximal.
